Results from patent publication US6083973A, “Methods for inhibiting mucin secretion using RAR α selective antagonists” (Syntex (U.S.A.) Inc., priority 1999, dated 2000).
pIC50: −log10 of the molar value.

How the values were obtained:
RARγ [1] = target: T1, RARγ (Homo sapiens, UniProt P13631); assay: RAR binding, competition with labelled ATRA, γ
T1 sequence (P13631 1-454): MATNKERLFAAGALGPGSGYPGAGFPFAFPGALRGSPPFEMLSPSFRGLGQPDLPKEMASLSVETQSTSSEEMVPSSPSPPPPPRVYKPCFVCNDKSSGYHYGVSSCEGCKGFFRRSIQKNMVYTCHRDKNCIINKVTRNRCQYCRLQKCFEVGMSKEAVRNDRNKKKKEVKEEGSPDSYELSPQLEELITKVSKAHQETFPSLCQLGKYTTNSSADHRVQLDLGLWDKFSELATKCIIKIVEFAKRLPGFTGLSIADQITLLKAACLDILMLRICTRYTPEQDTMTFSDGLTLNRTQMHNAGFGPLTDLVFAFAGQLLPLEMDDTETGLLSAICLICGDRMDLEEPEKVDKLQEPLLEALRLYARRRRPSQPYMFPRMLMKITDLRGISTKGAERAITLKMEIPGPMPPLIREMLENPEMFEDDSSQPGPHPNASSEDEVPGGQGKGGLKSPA
Protocol: (§1) The term "IC50 " of a retinoid for a retinoic acid receptor refers to the concentration of the retinoid at which binding by ATRA to that particular receptor is inhibited by 50%. Binding is measured by competition of the retinoid with labelled ATRA.
(§2) The RARα antagonist selectivity of a compound can be determined by routine ligand binding assays known to one of skill in the art such as described in C. Apfel, et al. Proc. Nat. Sci. Acad. (USA), 89:7129-7133 (1992); M. Teng, et al, J. Med. Chem., 40:2445-2451 (1997); and PCT Publication WO 96/30009.

RARα [2] = target: T2, RARα (Homo sapiens, UniProt P10276); assay: Transactivation of RARα relative to ATRA; type: biochemical; details: both compounds at 10000 nM, read-out: Transactivation EC50 % MAX, RARα
T2 sequence (P10276 1-462): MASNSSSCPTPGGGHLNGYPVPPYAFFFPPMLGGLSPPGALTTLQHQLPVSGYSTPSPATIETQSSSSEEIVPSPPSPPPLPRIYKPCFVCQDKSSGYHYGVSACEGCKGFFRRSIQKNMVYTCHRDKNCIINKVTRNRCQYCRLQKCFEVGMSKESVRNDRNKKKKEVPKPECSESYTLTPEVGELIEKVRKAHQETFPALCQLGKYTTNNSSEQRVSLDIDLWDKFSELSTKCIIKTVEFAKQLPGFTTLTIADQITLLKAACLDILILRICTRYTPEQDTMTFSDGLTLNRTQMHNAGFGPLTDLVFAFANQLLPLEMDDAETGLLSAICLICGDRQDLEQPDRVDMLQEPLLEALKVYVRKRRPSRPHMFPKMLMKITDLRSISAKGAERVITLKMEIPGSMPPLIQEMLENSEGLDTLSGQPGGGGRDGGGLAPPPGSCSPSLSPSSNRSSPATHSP
Protocol: (§3) As used herein, the term "EC50 " of a retinoid for a retinoic acid receptor means the transactivation by the retinoid of the particular retinoic acid receptor under consideration relative to the transactivation of that same receptor by ATRA under identical conditions with both retinoids at the same concentration (1000 nM or 10000 nM depending on the highest concentration tested). Values are expressed as a percentage.
(§4) As used herein, the term "transactivation" refers to the ability of a retinoid to activate the transcription of a gene where the gene transcription is initiated by the binding of a ligand to the particular retinoic acid receptor being tested, i.e., RARα, RARβ, or RARγ. Determining the ability of a compound to transactivate a retinoic acid receptor may be performed by methods known to those of skill in the art. Examples of such methods are found in Bernard, et al. Biochem. Biophys. Res. Commun., 186:977-983 (1992) and C. Apfel, et al. Proc. Nat. Sci. Acad. (USA), 89:7129-7133 (1992).
(§5) EC50 's were determined relative to ATRA, with both compounds at 10000 nM. Values are expressed as a percentage of transactivation relative to ATRA.

RARα [3] = target: T2, RARα; assay: RAR binding, competition with labelled ATRA, α
Protocol: as §1, §2

RARβ [4] = target: T3, RARβ (Homo sapiens, UniProt P10826); assay: RAR binding, competition with labelled ATRA, β
T3 sequence (P10826 1-455): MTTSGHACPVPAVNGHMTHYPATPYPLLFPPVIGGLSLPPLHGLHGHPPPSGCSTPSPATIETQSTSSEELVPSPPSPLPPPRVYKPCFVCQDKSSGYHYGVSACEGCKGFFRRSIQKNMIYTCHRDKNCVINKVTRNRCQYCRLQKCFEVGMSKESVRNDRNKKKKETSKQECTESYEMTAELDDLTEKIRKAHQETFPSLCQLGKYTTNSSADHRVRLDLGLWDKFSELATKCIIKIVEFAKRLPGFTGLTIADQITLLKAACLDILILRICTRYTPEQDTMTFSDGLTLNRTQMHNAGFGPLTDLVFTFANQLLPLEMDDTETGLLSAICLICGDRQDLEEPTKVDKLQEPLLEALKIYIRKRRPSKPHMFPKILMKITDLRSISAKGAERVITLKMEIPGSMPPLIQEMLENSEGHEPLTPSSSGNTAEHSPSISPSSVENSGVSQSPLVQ
Protocol: as §1, §2

RARβ [5] = target: T3, RARβ; assay: Transactivation of RARβ relative to ATRA; type: biochemical; details: both compounds at 10000 nM, read-out: Transactivation EC50 % MAX, RARβ
Protocol: as §3, §4, §5

RARγ [6] = target: T1, RARγ; assay: Transactivation of RARγ relative to ATRA; type: biochemical; details: both compounds at 10000 nM, read-out: Transactivation EC50 % MAX, RARγ
Protocol: as §3, §4, §5

## CCCCCCCCc1cc2c(cc1/C(C)=C/C=C/C(C)=C/C(=O)O)C(C)(C)CCCS2(=O)=O
RARγ [1]
  pIC50: 6.00
RARα [2]
  Emax at 10 µM: 11%
RARα [3]
  pIC50: 7.33
RARβ [4]
  pIC50: 5.31
RARβ [5]
  % transactivation relative to ATRA at 10 µM: 35%
RARγ [6]
  Emax at 10 µM: 33%

## CCCCCCCCc1cc2c(cc1/C(C)=C/c1ccc(C(=O)O)cc1)C(C)(C)CCS2(=O)=O
RARγ [1]
  pIC50: 5.64
RARα [2]
  Emax at 10 µM: 16%
RARα [3]
  pIC50: 7.15
RARβ [4]
  pIC50: 5.72
RARβ [5]
  % transactivation relative to ATRA at 10 µM: 15%
RARγ [6]
  Emax at 10 µM: 32%

## CCCCCCCOc1cc2c(cc1/C(C)=C/C=C/C(C)=C/C(=O)O)C(C)(C)CCS2
RARγ [1]
  pIC50: > 5.00
RARα [2]
  Emax at 10 µM: 27%
RARα [3]
  pIC50: 6.70
RARβ [4]
  pIC50: > 5.00
RARβ [5]
  % transactivation relative to ATRA at 10 µM: 17%
RARγ [6]
  Emax at 10 µM: 36%

## CCCCCCCOc1cc2c(cc1/C(C)=C/C=C/C(C)=C/C(=O)O)C(C)(C)CCCS2(=O)=O
RARγ [1]
  pIC50: 5.66
RARα [2]
  Emax at 10 µM: 12%
RARα [3]
  pIC50: 6.74
RARβ [4]
  pIC50: 5.19
RARβ [5]
  % transactivation relative to ATRA at 10 µM: 20%
RARγ [6]
  Emax at 10 µM: 30%

## CCCCCCCOc1cc2c(cc1/C(C)=C/c1ccc(C(=O)O)cc1)C(C)(C)CCCS2(=O)=O
RARγ [1]
  pIC50: 5.60
RARα [2]
  Emax at 10 µM: 14%
RARα [3]
  pIC50: 6.72
RARβ [4]
  pIC50: 5.52
RARβ [5]
  % transactivation relative to ATRA at 10 µM: 7%
RARγ [6]
  Emax at 10 µM: 18%

## CCCCCCCOc1cc2c(cc1-c1ccc3cc(C(=O)O)ccc3c1)C(C)(C)CCS2(=O)=O
RARγ [1]
  pIC50: 5.85
RARα [2]
  Emax at 10 µM: 8%
RARα [3]
  pIC50: 6.44
RARβ [4]
  pIC50: 5.55
RARβ [5]
  % transactivation relative to ATRA at 10 µM: 17%
RARγ [6]
  Emax at 10 µM: 14%

## CCCCCCCOc1cc2c(cc1/C(C)=C/c1ccc(C(=O)O)cc1)C(C)CCCS2(=O)=O (centres unmarked)
RARγ [1]
  pIC50: 5.52
RARα [2]
  Emax at 10 µM: 5%
RARα [3]
  pIC50: 6.28
RARβ [4]
  pIC50: 5.29
RARβ [5]
  % transactivation relative to ATRA at 10 µM: 7%

## CCCCCCCOc1cc2c(cc1C#Cc1ccc(C(=O)O)cc1)C(C)(C)CCS2(=O)=O
RARγ [1]
  pIC50: 5.54
RARα [2]
  Emax at 10 µM: 18%
RARα [3]
  pIC50: 6.62
RARβ [4]
  pIC50: 5.46
RARβ [5]
  % transactivation relative to ATRA at 10 µM: 6%
RARγ [6]
  Emax at 10 µM: 20%

## CCCCCCCOc1cc2c(cc1/C(C)=C/C=C/C(C)=C/C(=O)O)C(C)(C)CC[S+]2[O-] (centres unmarked)
RARγ [1]
  pIC50: 5.43
RARα [2]
  Emax at 10 µM: 13%
RARα [3]
  pIC50: 6.36
RARβ [4]
  pIC50: < 5.00
RARβ [5]
  % transactivation relative to ATRA at 10 µM: 10%
RARγ [6]
  Emax at 10 µM: 11%
